Reference: PubChem BioAssay AID248 (DTP/NCI, 2004)
Where “and” joins values, the source holds several entries; their conditions need not be identical. Equal entries are not always repeated. Inconclusive results and toxic doses are left out. No stated cut-off is given here; in the data, active means T/C of 150% or more; inactive means T/C below 125%.

System: L1210 leukemia ip in BDF1 mice, survival T/C
Experiment: NCI In Vivo Anticancer Drug Screen. Data for tumor model L1210 Leukemia (intraperitoneal) in B6D2F1 (BDF1) mice
Details: endpoint: mean survival time, higher = longer survival
Method in brief: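 Each compound was tested against a transplantable tumor grown in mice. The endpoint was survival, with treated animals benchmarked against vehicle controls as a simple ratio.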

[1] = dose: 75.0 mg/kg/injection, schedule: Q01DX001 (ip), vehicle: saline
[2] = dose: 150.0 mg/kg/injection, schedule: Q01DX001 (ip), vehicle: saline
[3] = dose: 300.0 mg/kg/injection, schedule: Q01DX001 (ip), vehicle: saline
[4] = dose: 100.0 mg/kg/injection, schedule: Q01DX009 (ip), vehicle: saline with Tween-80
[5] = dose: 100.0 mg/kg/injection, schedule: Q01DX001 (ip), vehicle: saline
[6] = dose: 200.0 mg/kg/injection, schedule: Q01DX001 (ip), vehicle: saline
[7] = dose: 400.0 mg/kg/injection, schedule: Q01DX001 (ip), vehicle: saline
[8] = dose: 100.0 mg/kg/injection, schedule: Q04DX002 (ip), vehicle: saline with Tween-80

Measured: T/C

[CH3][Pb]([CH3])([CH3])[O]C(=O)c1ccc([N+](=O)[O-])cc1
inactive: dose: 12.5 mg/kg/injection, schedule: Q04DX002 (ip), vehicle: Klucel (hydroxypropylcellulose) (HPC) 97 % of control

O=S1(=O)C2CCCC1(Cl)CCC2
inactive: [1] 107 % of control | [2] 102 % of control | [3] 93 % of control

CC1(C)OC2C(COC(=O)Oc3ccccc3)OC(n3cnc4c(=S)nc[nH]c43)C2O1 (stereo not given)
inactive: [4] 117 % of control | dose: 100.0 mg/kg/injection, schedule: Q04DX003 (ip), vehicle: Klucel (hydroxypropylcellulose) (HPC) 100 % of control | dose: 200.0 mg/kg/injection, schedule: Q04DX003 (ip), vehicle: Klucel (hydroxypropylcellulose) (HPC) 109 % of control

CCC(=O)CCC1CCCCC1
inactive: [5] 94 % of control | [6] 100 % of control | [7] 91 % of control

O=c1[nH]c2cnn(-c3ccccc3)c2c(=O)n1OS(=O)(=O)c1ccccc1
inactive: dose: 5.0 mg/kg/injection, schedule: Q01DX001 (ip), vehicle: saline 103 % of control | dose: 10.0 mg/kg/injection, schedule: Q01DX001 (ip), vehicle: saline 100 % of control | dose: 20.0 mg/kg/injection, schedule: Q01DX001 (ip), vehicle: saline 100 % of control | dose: 40.0 mg/kg/injection, schedule: Q01DX001 (ip), vehicle: saline 97 % of control | dose: 50.0 mg/kg/injection, schedule: Q01DX001 (ip), vehicle: saline 109 % of control | dose: 80.0 mg/kg/injection, schedule: Q01DX001 (ip), vehicle: saline 97 % of control | [5] 100 % of control | [6] 97 % of control | [7] 103 % of control

CN1CC(=O)N2c3ccccc3CC2C1=O (stereo not given)
inactive: [8] 102 % of control | dose: 200.0 mg/kg/injection, schedule: Q04DX002 (ip), vehicle: saline with Tween-80 113 % of control | dose: 400.0 mg/kg/injection, schedule: Q04DX002 (ip), vehicle: saline with Tween-80 102 % of control

OC(C(c1ccccc1)N1CCOCC1)C(O)(c1ccccc1)c1ccccc1 (stereo not given)
inactive: [5] 106 % of control | [6] 94 % of control | [7] 97 % of control

CC(=O)Nc1c(C)cc(C)c(F)c1Br
inactive: dose: 37.5 mg/kg/injection, schedule: Q01DX001 (ip), vehicle: Klucel (hydroxypropylcellulose) (HPC) 97 % of control | dose: 75.0 mg/kg/injection, schedule: Q01DX001 (ip), vehicle: Klucel (hydroxypropylcellulose) (HPC) 95 % of control | dose: 150.0 mg/kg/injection, schedule: Q01DX001 (ip), vehicle: Klucel (hydroxypropylcellulose) (HPC) 95 % of control

CC1(C)OC(=O)C(C#N)C1c1ccccc1 (stereo not given)
inactive: [5] 93 % of control | [6] 91 % of control | [7] 96 % of control

O=S(CCO)CCS(=O)CCO (stereo not given)
inactive: dose: 75.0 mg/kg/injection, schedule: Q01DX009 (ip), vehicle: saline 95 % of control | dose: 100.0 mg/kg/injection, schedule: Q04DX003 (ip), vehicle: saline 106 % of control | dose: 150.0 mg/kg/injection, schedule: Q01DX009 (ip), vehicle: saline 101 % of control | dose: 200.0 mg/kg/injection, schedule: Q04DX003 (ip), vehicle: saline 110 % of control | dose: 300.0 mg/kg/injection, schedule: Q01DX009 (ip), vehicle: saline 97 % of control | dose: 400.0 mg/kg/injection, schedule: Q04DX003 (ip), vehicle: saline 100 % of control

CN1CCN=C1c1ccc(NC(=O)c2ccc(C(=O)Nc3ccc(C4=NCCN4C)cc3)c(Cl)c2)cc1
inactive: dose: 1.5 mg/kg/injection, schedule: Q01DX Z (ip), vehicle: water 101 % of control | dose: 3.0 mg/kg/injection, schedule: Q01DX Z (ip), vehicle: water 103 % of control | dose: 6.0 mg/kg/injection, schedule: Q01DX Z (ip), vehicle: water 119 % of control

COc1ccc(C(=O)Nc2ccccc2SC)cc1
inactive: dose: 100.0 mg/kg/injection, schedule: Q04DX002 (ip), vehicle: Klucel (hydroxypropylcellulose) (HPC) 99 % of control | dose: 200.0 mg/kg/injection, schedule: Q04DX002 (ip), vehicle: Klucel (hydroxypropylcellulose) (HPC) 96 % of control | dose: 400.0 mg/kg/injection, schedule: Q04DX002 (ip), vehicle: Klucel (hydroxypropylcellulose) (HPC) 102 % of control

CCCCCCC(C(=O)OCC)P(=O)(OCC)OCC (stereo not given)
inactive: [1] 101 % of control | [2] 94 % of control | [3] 100 % of control

NC(=O)C1CCCCC1C(N)=O (stereo not given)
inactive: dose: 100.0 mg/kg/injection, schedule: Q04DX003 (ip), vehicle: saline with Tween-80 96 % of control | dose: 200.0 mg/kg/injection, schedule: Q04DX003 (ip), vehicle: saline with Tween-80 102 % of control | dose: 400.0 mg/kg/injection, schedule: Q04DX003 (ip), vehicle: saline with Tween-80 96 % of control

c1ccc(CSc2nccc(NN=C3CCCCC3)n2)cc1
inactive: dose: 25.0 mg/kg/injection, schedule: Q01DX001 (ip), vehicle: DMSO 90 % of control | dose: 50.0 mg/kg/injection, schedule: Q01DX001 (ip), vehicle: DMSO 88 % of control | dose: 75.0 mg/kg/injection, schedule: Q01DX009 (ip), vehicle: DMSO 92 % of control | dose: 100.0 mg/kg/injection, schedule: Q01DX001 (ip), vehicle: DMSO 88 % of control | dose: 150.0 mg/kg/injection, schedule: Q01DX009 (ip), vehicle: DMSO 94 % of control | dose: 200.0 mg/kg/injection, schedule: Q01DX001 (ip), vehicle: DMSO 91 % of control | dose: 400.0 mg/kg/injection, schedule: Q01DX001 (ip), vehicle: DMSO 100 % of control

NC(=NCc1ccccc1)C(F)(F)C(F)(F)F
inactive: dose: 44.0 mg/kg/injection, schedule: Q01DX Z (ip), vehicle: other 103 % of control and 118 % of control | dose: 66.0 mg/kg/injection, schedule: Q01DX Z (ip), vehicle: other 100 % of control and 101 % of control | dose: 100.0 mg/kg/injection, schedule: Q01DX Z (ip), vehicle: other 103 % of control and 90 % of control | dose: 150.0 mg/kg/injection, schedule: Q01DX Z (ip), vehicle: other 92 % of control and 90 % of control

Cc1cccc(NC(=O)c2cccc(F)c2)c1C
inactive: dose: 100.0 mg/kg/injection, schedule: Q01DX009 (ip), vehicle: Klucel (hydroxypropylcellulose) (HPC) 105 % of control | dose: 200.0 mg/kg/injection, schedule: Q01DX009 (ip), vehicle: Klucel (hydroxypropylcellulose) (HPC) 100 % of control | dose: 400.0 mg/kg/injection, schedule: Q01DX009 (ip), vehicle: Klucel (hydroxypropylcellulose) (HPC) 94 % of control

CC[N+](CC)(CC)CC(=O)c1ccc(Br)cc1
inactive: dose: 25.0 mg/kg/injection, schedule: Q04DX002 (ip), vehicle: saline with Tween-80 97 % of control | dose: 50.0 mg/kg/injection, schedule: Q04DX002 (ip), vehicle: saline with Tween-80 97 % of control | [8] 87 % of control and 92 % of control

Cc1c(Cl)cccc1NC(=O)Nc1ccccc1
inactive: dose: 25.0 mg/kg/injection, schedule: Q01DX009 (ip), vehicle: DMSO 95 % of control | dose: 50.0 mg/kg/injection, schedule: Q01DX009 (ip), vehicle: DMSO 95 % of control | dose: 100.0 mg/kg/injection, schedule: Q01DX009 (ip), vehicle: DMSO 88 % of control | dose: 100.0 mg/kg/injection, schedule: Q04DX003 (sc), vehicle: olive oil, sesame oil, peanut oil 95 % of control | dose: 200.0 mg/kg/injection, schedule: Q04DX003 (sc), vehicle: olive oil, sesame oil, peanut oil 99 % of control | dose: 400.0 mg/kg/injection, schedule: Q04DX003 (sc), vehicle: olive oil, sesame oil, peanut oil 114 % of control

COC(=O)CCC(OC(C)=O)C(=O)c1ccccc1 (stereo not given)
inactive: dose: 50.0 mg/kg/injection, schedule: Q01DX009 (ip), vehicle: saline with Tween-80 91 % of control | [4] 94 % of control | dose: 200.0 mg/kg/injection, schedule: Q01DX009 (ip), vehicle: saline with Tween-80 88 % of control
